Source: PMC8202924, “Emodepside targets SLO-1 channels of Onchocerca ochengi and induces broad anthelmintic effects in a bovine model of onchocerciasis” (PLoS Pathogens, 2021)

How the values were obtained:
Type in all cases: in vivo
[1] = tested on: Onchocerca ochengi adult worms in nodules; test: Histopathology of nodules, worm integrity scores after Striebel; parameters: key to Cumulative histopathological score, representative section: sum of 5 organ grades: 5 = healthy, 15 = max damage, 16 = debris/none; conditions: MRSM
Excerpt: Nodules for histopathology (n = 72) were collected up to day 290, after which few were available in the melarsomine (MRSM) group. For consistency, nodules were taken from the same three animals in each experimental group at each timepoint. Formalin-fixed nodules were embedded in paraffin, sectioned, and stained with hematoxylin and eosin or Giemsa as previously described or with Lendrum’s carbol chromotrope to specifically stain eosinophils.
Histological sections of nodules were scored by a single observer blinded to treatment group using the form proposed by Striebel, which was developed based on observations of O. volvulus (human) and Onchocerca gibsoni (bovine) nodules. In the current study, O. ochengi nodules were graded by applying a similar system in which the integrity of five structures or organs (cuticle, hypodermis, longitudinal muscle, pseudocoelomic cavity and gut) were classified through microscopical assessment of specific anatomical features (e.g., vacuoles in the hypodermis or host cells visible in the pseudocoelomic cavity) according to the categories in Table A in S1 Text. These grades were used to assign a pathology score for each aspect of parasite anatomy examined. Scores for all five structures or organs were then added together to produce a cumulative overall score, with a minimum score of 5 for parasite sections judged to be healthy across all five structures or organs. Since parasite sections showing extensive damage across all five anatomical regions could score a maximum of 15, sections containing cuticular debris only, or where parasites were unidentifiable in the section, were allocated a total score of 16. Where sections of male worms were present in the nodule these were scored separately to the females. Some sections contained more than one conjoined nodule. In these cases, females were also scored and recorded individually.
The effect of different treatments relative to either (a) no treatment controls or (b) pre-treatment observations of parasite integrity was analyzed using linear mixed effects models with the nonlinear mixed effects model package in R [63, 64]. Overall scores for parasite integrity were modelled as the response variable compared with (a) treatment groups for each timepoint and (b) different timepoints for each respective treatment group. In both cases, animal identity was modelled as a random effect to account for repeat observations taken from the same individual, and results were adjusted using a post-hoc Bonferroni correction for multiple comparisons. Similarly, to assess the effect of different treatments on cellular infiltrates over time, total PMN or eosinophil counts per high-power field and eosinophils as a percentage of the total PMN population were each modelled as […] variables compared with (a) treatment groups for each timepoint and (b) different timepoints for each respective treatment group.

[2] = tested on: Onchocerca ochengi adult female worms; test: Ex vivo visual motility assessment of adult female worms from nodules; conditions: MRSM, 4 mg/kg every other day for 3 days
Procedure: Tattooed nodules were removed under local anesthesia (lidocaine-epinephrine) on study days -1, 90, 180–190, 270–290, 360 and 550 in a randomized order as previously described. Nodules were trimmed of excess tissue and up to four nodules per animal were processed separately as follows: (1) stored frozen at –80°C for PK analysis (up to day 14 only); (2) injected in toto with 10% neutral-buffered formalin and stored at 4°C for histopathology (up to day 290 only); or (3) dissected immediately in phosphate-buffered saline to separate adult male and female worms. The anterior end of the female worm (which even in viable specimens is the only motile part of the parasite) was removed from the worm mass and incubated alongside intact male worms for 30 min at 37°C for visual motility assessment on a three-point scale. The remaining portion of the female worm mass was subjectively scored for fecundity on a four-point scale (0, uteri empty or worm structure degraded; 1, low; 2, intermediate; 3, normal) by examining the uterine contents microscopically in situ. This was followed by a fully quantitative embryogram to enumerate oocytes, embryonic stages and intrauterine Mf as described previously.
The second class of PD endpoint considered was worm motility, which was recorded as a three-class categorical variable and quantified here as a fraction of normal worm motility. First, a linear model of decrease in motility per dose group was established with a study-wide mean motility at day –1: motilitydose_group,t=meanmotilityday−1−slopedose_group*t (5)

[3] = tested on: Onchocerca ochengi microfilariae; test: Dermal microfilarial load (area under the density-time curve); conditions: MRSM, 4 mg/kg every other day for 3 days; vs placebo
Excerpt: Here, the null hypothesis, H0, is that the parameter m is not different to 0. If H0 can be rejected, a concentration-dependent effect of emodepside can be assumed. The alpha level selected for statistical significance was 5%. We considered three PD endpoints, a) uterine contents (with oocytes, developing embryonic stages, normal intrauterine Mf and degenerate intrauterine Mf considered separately), b) skin Mf load, and c) male and female motility (separately). Mf load is defined as the area under the curve of observed counts over time according to Eq 4: Mfload=∑i=2nMfdensityi+Mfdensityi−1/2*ti−ti−1 (4) per individual treated animal. To increase the robustness of the analysis, only animals presenting a skin Mf load of ≥100/100 mg skin at day -1 were included.
The same principle was applied to the analysis of the uterine contents. In order to test a dose-dependent effect, and an effect over placebo, the log load of uterine contents or Mf was used as the PD endpoint E in Eq 3, and exposure C was the sum of doses. Over all doses and individual animals, an effect size (m) and corresponding statistics were calculated using R’s lm function.

[4] = 4 mg/kg every other day for 3 days, day 90
[5] = 4 mg/kg every other day for 3 days, day 180
[6] = 4 mg/kg every other day for 3 days, day 290

SMILES: NCCS[As](SCCN)c1ccc(Nc2nc(N)nc(N)n2)cc1 [melarsomine]
- Cumulative pathology scores of worm sections ([1]; 4 mg/kg every other day for 3 days, all post-treatment timepoints, P <0.05): significantly higher pathology scores than PCBO
- Cumulative histopathological worm score, mixed-effects coefficient (SE) vs placebo [1, 4]: 8.00 (2.01)
- Cumulative histopathological worm score, mixed-effects coefficient (SE) vs pre-treatment (day 1) [1, 4]: 9.45 (1.81)
- Degenerate nodules (no parasite sections or only cuticular fragments), of three nodules [1, 4]: 1
- Mean histopathological score, cuticle [1, 4]: 3.00
- Mean histopathological score, gut [1, 4]: 3.33
- Mean histopathological score, hypodermis [1, 4]: 3.33
- Mean histopathological score, longitudinal muscle [1, 4]: 2.67
- Mean histopathological score, pseudocoleomic cavity [1, 4]: 3.33
- Cumulative histopathological worm score, mixed-effects coefficient (SE) vs placebo [1, 5]: 7.31 (2.41)
- Cumulative histopathological worm score, mixed-effects coefficient (SE) vs pre-treatment (day 1) [1, 5]: 8.12 (1.81)
- Degenerate nodules (no parasite sections or only cuticular fragments), of three nodules [1, 5]: 2
- Mean histopathological score, cuticle [1, 5]: 3.33
- Mean histopathological score, gut [1, 5]: 3.00
- Mean histopathological score, hypodermis [1, 5]: 3.00
- Mean histopathological score, longitudinal muscle [1, 5]: 3.00
- Mean histopathological score, pseudocoleomic cavity [1, 5]: 3.33
- Cumulative histopathological worm score, mixed-effects coefficient (SE) vs placebo [1, 6]: 8.67 (2.97)
- Cumulative histopathological worm score, mixed-effects coefficient (SE) vs pre-treatment (day 1) [1, 6]: 11.11 (1.81)
- Degenerate nodules (no parasite sections or only cuticular fragments), of three nodules [1, 6]: 3
- Mean histopathological score, cuticle [1, 6]: 4.00
- Mean histopathological score, gut [1, 6]: 4.00
- Mean histopathological score, hypodermis [1, 6]: 4.00
- Mean histopathological score, longitudinal muscle [1, 6]: 4.00
- Mean histopathological score, pseudocoleomic cavity [1, 6]: 4.00
- Cumulative histopathological score, representative section ([1]; day 290, animal B0435, degenerate nodule, no parasites): 16
- Female worm motility ([2]; by day 90, all nodules): reduced to zero
- Fraction of normal adult female worm motility ([2]; day 90, n = 7): 0%
- Fraction of normal adult female worm motility ([2]; day 185, n = 7): 0%
- Fraction of normal adult female worm motility ([2]; day 275, n = 7): 0%
- Fraction of normal adult female worm motility ([2]; day 360, n = 2): 0%
- Fraction of normal adult female worm motility ([2]; day 550, n = 2): 0%
- Median reduction in Mf load [3]: 96%
